Test results: patent US20160355475A1, “NOVEL INDOLE DERIVATIVE COMPOUND AND PHARMACEUTICAL COMPOSITION COMPRISING THE SAME” (CHONG KUN DANG PHARMACEUTICAL CORP., priority 2014, published 2016)

Tests used:
HDAC6 human recombinant = target: T1, HDAC6 human recombinant (Homo sapiens, UniProt Q9UBN7); assay: HDAC6 enzyme activity inhibition (fluorimetric, in vitro); type: biochemical; details: 37° C., 60 minutes; tested at 0.1, 1, 10, 100 and 1000 nM
T1 construct: purchased Calbiochem 382180
T1 sequence (Q9UBN7 1-1215): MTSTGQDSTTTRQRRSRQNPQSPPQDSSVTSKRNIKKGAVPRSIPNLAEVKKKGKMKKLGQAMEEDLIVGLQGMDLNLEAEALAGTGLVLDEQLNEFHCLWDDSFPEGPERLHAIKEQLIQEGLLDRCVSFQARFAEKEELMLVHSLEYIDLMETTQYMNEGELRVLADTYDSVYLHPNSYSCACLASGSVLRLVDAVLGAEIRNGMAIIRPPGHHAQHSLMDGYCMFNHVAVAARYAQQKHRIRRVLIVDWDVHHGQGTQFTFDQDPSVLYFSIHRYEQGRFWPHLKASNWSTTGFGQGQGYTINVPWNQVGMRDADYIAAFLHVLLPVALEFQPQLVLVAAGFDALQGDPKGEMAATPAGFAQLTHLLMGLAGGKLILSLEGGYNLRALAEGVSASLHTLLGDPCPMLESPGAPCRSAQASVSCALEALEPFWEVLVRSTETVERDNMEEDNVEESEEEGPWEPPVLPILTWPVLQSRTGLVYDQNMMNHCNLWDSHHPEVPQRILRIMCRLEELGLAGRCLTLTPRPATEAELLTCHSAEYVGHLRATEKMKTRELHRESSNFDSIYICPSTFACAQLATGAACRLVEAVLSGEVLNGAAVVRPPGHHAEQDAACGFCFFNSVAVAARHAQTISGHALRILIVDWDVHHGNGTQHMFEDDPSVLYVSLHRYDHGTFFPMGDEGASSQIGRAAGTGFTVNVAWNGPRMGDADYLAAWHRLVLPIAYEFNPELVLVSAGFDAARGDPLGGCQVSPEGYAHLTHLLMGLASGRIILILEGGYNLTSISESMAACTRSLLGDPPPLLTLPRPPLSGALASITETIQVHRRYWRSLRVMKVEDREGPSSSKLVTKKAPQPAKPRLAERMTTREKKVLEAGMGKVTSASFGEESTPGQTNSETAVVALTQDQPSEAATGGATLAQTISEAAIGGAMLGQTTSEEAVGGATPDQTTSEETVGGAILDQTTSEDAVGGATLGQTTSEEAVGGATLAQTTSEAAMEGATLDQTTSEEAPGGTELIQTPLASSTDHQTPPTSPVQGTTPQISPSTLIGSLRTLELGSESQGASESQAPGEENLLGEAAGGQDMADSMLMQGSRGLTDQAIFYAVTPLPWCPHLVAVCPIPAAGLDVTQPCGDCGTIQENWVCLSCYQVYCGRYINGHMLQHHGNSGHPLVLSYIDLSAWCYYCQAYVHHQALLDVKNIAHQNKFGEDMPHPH
Procedure, shortened: (§1)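 Fluorimetric deacetylase assay using an HDAC1 kit and human recombinant HDAC6. Compounds tested at 100–10000 nM (HDAC1) or 0.1–1000 nM (HDAC6), reacted 60 min at 37 °C, then developer 30 min at 37 °C before fluorescence read. Values in μM.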

HDAC1 = target: T2, HDAC1 (Homo sapiens, UniProt Q13547); assay: HDAC1 enzyme activity inhibition (HDAC1 fluorimetric drug discovery assay kit); type: biochemical; details: 37° C., 60 minutes; tested at 100, 1000 and 10000 nM
T2 construct: purchased Enzolifesciences BML-AK511
T2 sequence (Q13547 whole entry): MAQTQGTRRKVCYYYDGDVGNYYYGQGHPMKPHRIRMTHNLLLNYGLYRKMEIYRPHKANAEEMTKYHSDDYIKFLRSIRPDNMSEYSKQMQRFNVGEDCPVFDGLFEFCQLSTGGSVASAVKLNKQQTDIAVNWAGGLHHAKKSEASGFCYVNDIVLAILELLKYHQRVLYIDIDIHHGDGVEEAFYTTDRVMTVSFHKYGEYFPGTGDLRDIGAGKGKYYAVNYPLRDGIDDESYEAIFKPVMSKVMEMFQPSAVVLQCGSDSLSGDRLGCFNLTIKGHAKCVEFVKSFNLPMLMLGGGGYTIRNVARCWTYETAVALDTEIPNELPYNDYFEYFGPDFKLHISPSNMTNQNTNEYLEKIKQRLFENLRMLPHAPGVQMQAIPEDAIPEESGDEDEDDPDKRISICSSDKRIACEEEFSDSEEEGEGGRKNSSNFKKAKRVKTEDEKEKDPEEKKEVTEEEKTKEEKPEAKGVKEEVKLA
Procedure, shortened: as §1

[1] = test system: tubulin acetylation (HDAC6); assay: Western blot of tubulin acetylation in RPMI8226 cells; type: cell-based; details: 24 hours, FIG. 1
Protocol: (§2) Specifically, RPMI8226 cells were seeded into a six-well plate at a density of 1.0×10^6 cells/well, and then treated with varying concentrations of compound 528. After 24 hours, protein was extracted from the cells using RIPA buffer and quantified by the Bradford method. 25 μg of the protein was added to sample buffer and electrophoresed on 4-12% gradient gel, and the gel was transferred to a nitrocellulose membrane for 50 minutes. The membrane was blocked in 5% skim milk solution for 1 hour. Anti-acetyl H3 antibody (1:2,000), anti-acetyl H4 antibody (1:5,000), anti-acetyl tubulin antibody (1:5,000) and anti-β-actin antibody (1:10,000) were added to 5% skim milk, and the membrane was immersed in the skim milk and allowed to react at 4° C. for 16 hours, after which it was washed three times with 1×TBS-T for 10 minutes each washing. IgG-HRP antibody (1:5,000) was added to the 5% skim milk, and the membrane was immersed in the skim milk and allowed to react at room temperature for 40 minutes, after which it was washed three times with 1×TBS-T for 10 minutes each washing. Detection was performed by LAS 3000 using ECL solution.

[2] = test system: histone acetylation (HDAC1); assay: Western blot of histone H3 and H4 acetylation in RPMI8226 cells; type: cell-based; details: 24 hours, FIG. 1
Protocol: as §2

[3] = Distribution in brain tissue and plasma of ICR mice after oral administration; type: in vivo; details: mouse, 50 mg/kg PO, 0.5, 1 and 2 hours, LC-MS/MS, FIG. 2, read-out: concentration in the plasma tissue relative to that in the brain tissue
Protocol: The distribution of the compound of the present invention in the brain tissue of ICR mice was examined. Specifically, the compound of the present invention was administered orally (PO) to ICR mice at a dose of 50 mg/kg. At 0.5, 1 and 2 hours after administration, blood was collected from the orbital venous plexus of the mice. After the mice were euthanized, the brain tissue (including cerebral, cerebellar and medullar tissues) was extracted.
The blood was centrifuged at 13000 rpm for 4 minutes, and then 30 μL of plasma was collected, and an organic solvent (90 wt % acetonitrile in methanol) was added thereto to remove protein. Then, the solution was centrifuged, and the supernatant was collected.
In addition, saline was added to the isolated brain tissue, and homogenized using a homogenizer. From the homogenized dilution, 100 μL of a sample was taken, and an organic solvent (90 wt % acetonitrile in methanol) was added thereto to remove protein, after which the solution was centrifuged, and the supernatant was collected. The concentrations of the compound of the present invention in the pretreated plasma and brain tissue solutions were analyzed by LC-MS/MS.

IC50 (HDAC6 human recombinant) [nM] | IC50 (HDAC1) [nM] | Kp [3] | SMILES | compound concentration at which tubulin acetylation (HDAC6) appeared [1] [nM] | compound concentration at which histone acetylation (HDAC1) appeared [2]
74 | 8000 | ≥ 0.5 | Cc1c(Cc2ccc(C(=O)NO)cc2)c2ccccc2n1CC1CCN(CC(C)(C)F)CC1 [Compound 528, 4-((1-((1-(2-fluoro-2-methylpropyl)piperidin-4-yl)methyl)-2-methyl-1H-indol-3-yl)methyl)-N-hydroxybenzamide] | 100 | at least 3 uM
5 | 1890 |  | COCCN1CCN(CCn2c(C)c(Cc3ccc(C(=O)NO)cc3)c3ccccc32)CC1 [Compound 198, N-hydroxy-4-((1-(2-(4-(2-methoxyethyl)piperazin-1-yl)ethyl)-2-methyl-1H-indol-3-yl)methyl)benzamide] |  | 
28 | 1480 |  | Cc1c(Cc2ccc(C(=O)NO)cc2)c2ccccc2n1CC1CCN(Cc2ccccn2)CC1 [Compound 623, N-hydroxy-4-((2-methyl-1-((1-(pyridin-2-ylmethyl)piperidin-4-yl)methyl)-1H-indol-3-yl)methyl)benzamide] |  | 
37 | 802 |  | Cc1c(Cc2ccc(C(=O)NO)cc2)c2ccccc2n1CC1CCN(CC2(F)CCN(C(C)C)CC2)CC1 [Compound 681, 4-((1-((1-((4-Fluoro-1-isopropylpiperidin-4-yl)methyl)piperidin-4-yl)methyl)-2-methyl-1H-indol-3-yl)methyl)-N-hydroxybenzamide] |  | 
